Assay results reported in patent US7674823B2, “DNA-PK inhibitors” (Cancer Research Technology Limited, priority 2001, dated 2010).
Where two headings read alike, the source gives them in different places.

Experiments:
ATM protein [1] = target: T1, ATM protein (Homo sapiens, UniProt Q13315); experiment: ATM inhibition assay (immunoprecipitated ATM, GSTp53N66 substrate); format: biochemical
T1 construct: ATM protein was immunoprecipitated from HeLa cell nuclear extract; endogenous in cells; host or cells: HeLa cell nuclear extract (immunoprecipitate)
Protocol: (§1) In order to assess the inhibitory action of the compounds against ATM in vitro, the following assay was used to determine IC50 values.
(§2) ATM protein was immunoprecipitated from HeLa cell nuclear extract using rabbit polyclonal antisera raised to the C-terminal ˜500 amino-acid residues of the human ATM protein. The immunoprecipitation was performed according to the methodology described by Banin, S. et al. (1998) Enhanced phosphorylation of p53 by ATM in response to DNA damage. Science 281:1674-1677. 10 μl of immunoprecipitated ATM in Buffer C (50 mM Hepes, pH 7.4, 6 mM MgCl2, 150 mM NaCl, 0.1 mM sodium orthovanadate, 4 mM MnCl2, 0.1 mM dithiothreitol, 10% glycerol) was added to 32.5 μl of buffer C containing 1 μg of the ATM substrate GSTp53N66 in a V-bottomed 96 well polypropylene plate. The GSTp53N66 substrate is the amino terminal 66 amino acid residues of human wild type p53 fused to glutathione S-transferase. ATM phosphorylates p53 on the residue serine 15 (Banin, S. et al. (1998) Enhanced phosphorylation of p53 by ATM in response to DNA damage. Science 281:1674-1677). Varying concentrations of inhibitor were then added. […] After 10 minutes of incubation at 37° C., the reactions were initiated by the addition of 5 μl of 50 μM Na-ATP. After 1 h with shaking at 37° C., 150 μl of phosphate buffered saline (PBS) was added to the reaction and the plate centrifuged at 1500 rpm for 10 minutes. 5 μl of the reaction was then transferred to a 96 well opaque white plate containing 45 μl of PBS to allow the GSTp53N66 substrate to bind to the plate wells. The plate was covered and incubated at room temperature for 1 h with shaking before discarding the contents. The plate wells were washed twice by the addition of PBS prior to the addition of 3% (w/v) bovine serum albumin (BSA) in PBS. The plate was incubated at room temperature for 1 h with shaking before discarding the contents and washing twice with PBS. To the wells, 50 μl of a 1:10,000 dilution of primary phosphoserine-15 antibody (Cell Signaling Technology, #9284L) in 3% BSA/PBS was added to detect the phosphorylation event on the serine 15 residue of p53 elicited by the ATM kinase. After 1 h of incubation at room temperature with shaking, the wells were washed four times with PBS prior to the addition of an anti-rabbit HRP conjugated secondary antibody (Pierce, 31462) with shaking for 1 h at room temperature. The wells were then washed four times with PBS before the addition of chemiluminescence reagent (NEN Renaissance, NEL105). The plate was then shaken briefly, covered with a transparent plate seal and transferred to a TopCount NXT for chemiluminescent counting. Counts per second, following a one second counting time, were recorded for each reaction. The inhibition of ATM activity by compounds was calculated as described above for the DNA-PK assay.
(§3) The selectivity was determined by the following equation: […]

ATM protein [2] = experiment: as above; format: biochemical, human; conditions: selectivity ratio from the IC50s for ATM and DNA-PK
Protocol: as §1, §2, §3

PI 3-kinase (p110α/p85α) [3] = target: T2, PI 3-kinase (p110α/p85α) (UniProt P32871); experiment: PI 3-kinase inhibition assay; format: biochemical; conditions: GST-fused p110α/p85α
T2 construct: other: GST-fused p110α/p85α
From the text: (§4) In order to assess the inhibitory action of the compounds against PI 3-kinase in vitro, the following assay was used to determine IC50 values.
(§5) Baculoviral recombinant GST-fused PI 3-kinase (p110α/p85α) was purified from Sf9 insect cells using GSH-sepharose affinity chromatography as described (Wymann, M. T et al., (1996) Wortmannin inactivates phosphoinositide 3-kinase by covalent modification of Lys-802, a residue involved in the phosphate transfer reaction. Mol. Cell Biol. 16:1722-1733). PI 3-kinase (1 μl) was diluted in reaction buffer (89 μl of 50 mM Hepes pH 7.5, 150 mM NaCl, 0.1 mM Sodium Orthovanadate, containing 20 μg of phosphatidylinositol) and varying concentrations of inhibitor compound added. […] Reactions were incubated for a further 20 minutes at 37° C., before quenching with the addition of 400 μl of chloroform/methanol (1:1). Reactions were acidified by the addition of 200 μl of 1M HCl, before separation of the organic and aqueous phases by centrifugation at 10,000 g for 30 seconds. The organic phase was transferred to a fresh tube and washed twice with 150 μl of 1M hydrochloric acid/methanol (1:1), discarding the aqueous phase. The washed reaction product was then placed in a white 96-well plate with 100 μl of scintillation fluid and transferred to a TopCount NXT for scintillation counting. Counts per minute, following a one minute counting time, were recorded for each reaction. The inhibition of PI 3-kinase activity by compounds was calculated as described above for the DNA-PK assay.
as §3

PI 3-kinase (p110α/p85α) [4] = experiment: PI 3-kinase inhibition assay; format: biochemical; conditions: selectivity ratio from the IC50s for PI 3-kinase and DNA-PK
From the text: as §4, §5, §3

[5] = target: T3, Mammalian DNA-PK, isolated from Hela cell nuclear extract (Homo sapiens, UniProt P78527); experiment: DNA-PK inhibition assay (33P-ATP, filter binding); format: biochemical
T3 construct: Mammalian DNA-PK, isolated from Hela cell nuclear extract; endogenous in cells; host or cells: HeLa cell nuclear extract (purified per Gell and Jackson 1999)
Protocol: In order to assess the inhibitory action of the compounds against DNA-PK in vitro, the following assay was used to determine IC50 values.
The total assay volume per well was 40 μl.
After 10 minutes of incubation at 30° C. the reactions were initiated by the addition of Na-ATP (50 μM final), ^33p-γATP and a 30mer double stranded DNA oligonucleotide (10 ng/μl) in a volume of 10 μl. Designated positive and negative reaction wells were done in combination with compound wells (unknowns) in order to calculate % enzyme activities. The plates were then shaken for 2 minutes and incubated at 30° C. for 45 minutes.
Following the incubation, the reactions were quenched by the addition of 50 μl 30% acetic acid to each well. The plates were then shaken for 5 minutes and the contents of each plate (80 μl from each well) transferred over to a 96 well Polyfiltronics filtration plate, containing P81-phosphocellulose membrane (TRADE MARK)(Whatman, UK). The solutions were vacuum pumped through the membrane and each well membrane washed four times using 300 μl of 15% acetic acid. The well membranes were then air dried and 20 μl of scintillant was added to each well.
The plates were transferred to a TopCount NXT (TRADE MARK) (Packard, UK) for scintillation counting. Values recorded are counts per minute (cpm) following a 1 minute counting time for each well.
The enzyme activity for each compound is then calculated using the following equation: […]
These are determined over a range of different concentrations, normally from 10 μM down to 0.01 μM. Such IC50 values are used as comparative values to identify increased compound potencies.

[6] = concentration at which 50% of the enzyme activity is inhibited, read-out: DNA-PK Inhibition IC50
[7] = IC50 of less than about 1 μM and/or % inhibition of more than about 50 at 1 μM, read-out: DNA-PK inhibition IC50 (particular efficacy)

T1 sequence (Q13315 whole entry): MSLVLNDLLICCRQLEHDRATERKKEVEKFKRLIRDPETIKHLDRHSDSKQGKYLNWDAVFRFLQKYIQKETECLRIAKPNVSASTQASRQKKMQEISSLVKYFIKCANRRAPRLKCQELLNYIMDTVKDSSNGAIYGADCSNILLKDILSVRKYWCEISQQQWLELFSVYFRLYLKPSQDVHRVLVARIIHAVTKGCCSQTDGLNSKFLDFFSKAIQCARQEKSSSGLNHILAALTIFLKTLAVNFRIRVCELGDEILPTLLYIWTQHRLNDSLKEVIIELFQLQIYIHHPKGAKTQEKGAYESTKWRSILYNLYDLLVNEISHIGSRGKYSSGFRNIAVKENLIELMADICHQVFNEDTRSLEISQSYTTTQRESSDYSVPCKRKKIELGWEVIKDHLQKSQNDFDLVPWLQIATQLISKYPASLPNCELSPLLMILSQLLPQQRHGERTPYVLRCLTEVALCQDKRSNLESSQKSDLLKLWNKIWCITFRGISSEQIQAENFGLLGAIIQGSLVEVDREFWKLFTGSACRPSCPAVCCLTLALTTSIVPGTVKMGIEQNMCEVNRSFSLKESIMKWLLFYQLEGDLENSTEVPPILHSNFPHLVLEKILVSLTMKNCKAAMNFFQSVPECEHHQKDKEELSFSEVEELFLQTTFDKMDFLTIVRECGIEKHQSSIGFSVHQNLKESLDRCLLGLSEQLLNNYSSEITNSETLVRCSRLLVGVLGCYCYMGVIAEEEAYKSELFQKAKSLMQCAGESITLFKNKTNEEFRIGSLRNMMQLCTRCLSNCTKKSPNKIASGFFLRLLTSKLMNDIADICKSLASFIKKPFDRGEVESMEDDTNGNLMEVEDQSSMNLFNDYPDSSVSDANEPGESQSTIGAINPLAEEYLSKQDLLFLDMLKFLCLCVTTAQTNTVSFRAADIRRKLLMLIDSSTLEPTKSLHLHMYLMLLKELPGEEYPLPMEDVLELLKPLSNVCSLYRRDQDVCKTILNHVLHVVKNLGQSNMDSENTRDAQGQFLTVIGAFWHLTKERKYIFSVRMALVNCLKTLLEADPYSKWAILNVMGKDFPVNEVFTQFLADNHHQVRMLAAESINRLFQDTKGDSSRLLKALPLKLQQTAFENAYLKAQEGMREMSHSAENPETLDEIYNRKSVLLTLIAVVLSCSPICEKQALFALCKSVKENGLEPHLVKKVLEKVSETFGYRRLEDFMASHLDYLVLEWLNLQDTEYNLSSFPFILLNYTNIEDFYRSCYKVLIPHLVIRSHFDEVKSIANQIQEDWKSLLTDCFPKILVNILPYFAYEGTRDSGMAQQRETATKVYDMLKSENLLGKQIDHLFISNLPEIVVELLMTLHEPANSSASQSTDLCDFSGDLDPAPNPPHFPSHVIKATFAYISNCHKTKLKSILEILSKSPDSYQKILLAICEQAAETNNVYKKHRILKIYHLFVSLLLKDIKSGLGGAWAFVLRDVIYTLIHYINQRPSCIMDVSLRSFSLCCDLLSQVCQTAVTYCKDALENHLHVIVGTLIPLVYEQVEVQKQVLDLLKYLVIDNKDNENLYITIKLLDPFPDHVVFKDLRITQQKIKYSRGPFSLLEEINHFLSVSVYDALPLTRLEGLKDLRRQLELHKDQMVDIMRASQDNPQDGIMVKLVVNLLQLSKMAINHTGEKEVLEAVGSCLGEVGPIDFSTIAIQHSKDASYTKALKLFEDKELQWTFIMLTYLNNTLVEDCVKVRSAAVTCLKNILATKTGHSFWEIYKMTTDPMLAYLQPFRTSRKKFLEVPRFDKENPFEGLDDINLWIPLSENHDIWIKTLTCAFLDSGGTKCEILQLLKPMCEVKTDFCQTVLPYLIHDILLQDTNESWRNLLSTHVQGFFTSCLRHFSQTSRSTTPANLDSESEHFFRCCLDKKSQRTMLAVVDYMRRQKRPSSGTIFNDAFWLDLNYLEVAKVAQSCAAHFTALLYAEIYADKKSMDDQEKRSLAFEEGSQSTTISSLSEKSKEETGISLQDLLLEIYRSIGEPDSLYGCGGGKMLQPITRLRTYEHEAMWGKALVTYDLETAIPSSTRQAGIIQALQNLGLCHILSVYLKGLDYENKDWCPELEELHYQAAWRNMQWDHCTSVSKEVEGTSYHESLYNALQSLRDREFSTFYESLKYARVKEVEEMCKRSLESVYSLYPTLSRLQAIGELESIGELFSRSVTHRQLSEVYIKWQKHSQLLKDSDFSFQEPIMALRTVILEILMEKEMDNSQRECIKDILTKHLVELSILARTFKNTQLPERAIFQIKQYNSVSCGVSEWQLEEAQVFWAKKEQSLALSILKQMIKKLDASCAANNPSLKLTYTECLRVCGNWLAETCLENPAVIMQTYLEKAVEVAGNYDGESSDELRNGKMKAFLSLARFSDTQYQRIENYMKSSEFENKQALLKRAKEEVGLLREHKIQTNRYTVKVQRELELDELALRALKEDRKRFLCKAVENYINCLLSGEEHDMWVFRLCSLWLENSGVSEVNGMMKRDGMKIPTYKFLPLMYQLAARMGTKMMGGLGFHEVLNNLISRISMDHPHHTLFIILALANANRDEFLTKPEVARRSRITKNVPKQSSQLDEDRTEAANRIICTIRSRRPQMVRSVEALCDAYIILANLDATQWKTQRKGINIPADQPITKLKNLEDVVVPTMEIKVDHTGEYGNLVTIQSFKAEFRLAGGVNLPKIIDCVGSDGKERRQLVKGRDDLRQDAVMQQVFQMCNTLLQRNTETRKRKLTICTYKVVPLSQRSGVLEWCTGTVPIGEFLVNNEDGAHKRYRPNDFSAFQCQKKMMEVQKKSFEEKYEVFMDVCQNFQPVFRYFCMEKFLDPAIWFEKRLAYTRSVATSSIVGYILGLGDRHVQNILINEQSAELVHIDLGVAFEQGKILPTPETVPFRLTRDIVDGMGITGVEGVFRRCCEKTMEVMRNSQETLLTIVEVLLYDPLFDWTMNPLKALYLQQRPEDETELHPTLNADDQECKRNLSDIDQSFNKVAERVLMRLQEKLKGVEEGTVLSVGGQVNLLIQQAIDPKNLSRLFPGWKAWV

| IC50 (ATM protein [1]) | IC50 (PI 3-kinase (p110α/p85α) [3]) | Δ(DNA-PK/PI 3-K) (PI 3-kinase (p110α/p85α) [4]) | melting point | IC50 [5, 6] | IC50 [5, 7] | Structure (SMILES) | Δ(DNA-PK/ATM) (ATM protein [2]) |
| --- | --- | --- | --- | --- | --- | --- | --- |
| > 100 µM |  |  |  |  |  | O=c1cc(-c2ccc(Cl)cc2)oc(N2CCOCC2)c1 [Compound 284, 2-(4-chlorophenyl)-6-(morpholin-4-yl)-pyran-4-one] | >286 |
| > 50 µM | 30 µM | 38 | 148 to 150 °C |  |  | O=c1cc(-c2ccccc2)oc(N2CCOCC2)c1 [Compound 285, 2-(morpholin-4-yl)-6-phenyl-pyran-4-one] | >63 |
| 24 µM |  |  | 125 to 127 °C |  |  | COc1ccccc1-c1cc(=O)cc(N2CCOCC2)o1 [Compound 286, 2-(2-methoxyphenyl)-6-(morpholin-4-yl)-pyran-4-one] | 80 |
| > 50 µM |  |  | 115 to 117 °C |  |  | COc1cccc(-c2cc(=O)cc(N3CCOCC3)o2)c1 [Compound 287, 2-(3-methoxyphenyl)-6-(morpholin-4-yl)-pyran-4-one] | >125 |
| > 100 µM | 15 µM | 43 |  |  |  | COc1ccc(-c2cc(=O)cc(N3CCOCC3)o2)cc1 [Compound 288, 2-(4-Methoxyphenyl)-6-(morpholin-4-yl)-pyran-4-one] | >286 |
| > 50 µM | 37 µM | 82 | 156 °C |  |  | CC(C)(C)c1ccc(-c2cc(=O)cc(N3CCOCC3)o2)cc1 [Compound 289, 2-(4-tert-butyl-phenyl)-6-(morpholin-4-yl)-pyran-4-one] | >111 |
| > 50 µM |  |  | 169 to 170 °C |  |  | O=c1cc(-c2cccc(F)c2)oc(N2CCOCC2)c1 [Compound 291, 6-(3-fluorophenyl)-2-(morpholin-4-yl)pyran-4-one] | >167 |
| > 100 µM | 13 µM | 52 | 216 to 217 °C |  |  | O=c1cc(-c2ccc(F)cc2)oc(N2CCOCC2)c1 [Compound 292, 6-(4-fluorophenyl)-2-(morpholin-4-yl)pyran-4-one] | >400 |
| > 100 µM |  | 1 |  |  |  | O=c1cc(N2CCOCC2)oc2c(-c3ccccc3)cccc12 [Compound 294, 8-Phenyl-2-(morpholin-4-yl)-chromen-4-one] | > 67 |
| > 100 µM | 6 µM | 5 | 171 to 173 °C | 1.2 µM |  | O=c1cc(N2CCSCC2)oc2c1ccc1ccccc12 [Compound 296, 2-(thiomorpholin-4-yl)-benzo[h]chromen-4-one] | >83 |
| > 50 µM | 16 µM | 40 | 219 °C | 0.4 µM | < 1 µM | O=c1cc(N2CCOCC2)oc2cc3ccccc3cc12 [Compound 301, 2-(morpholin-4-yl)-benzo[g]chromen-4-one] | >125 |
| > 100 µM |  |  |  | 0.9 µM |  | O=c1cc(N2CCOCC2)oc2cc(O)ccc12 [Compound 307, 7-hydroxy-2-(morpholin-4-yl)-chromen-4-one] | >111 |
| > 100 µM | 11 µM | 110 |  |  |  | O=c1cc(N2CCOCC2)oc2ccc3ccccc3c12 [Compound 310, 2-morpholin-4-yl-benzo[f]chromen-4-one] | >1000 |
| > 100 µM |  |  | 263 to 264 °C | 0.45 µM | < 1 µM | O=c1cc(N2CCOCC2)oc2cc(OCc3ccc4ccccc4c3)ccc12 [Compound 418, 7-(Naphthalen-2-ylmethoxy)-2-morpholin-4-yl-chromen-4-one] | >222 |
| > 100 µM |  |  | 204 to 206 °C | 3 µM |  | O=C(Oc1ccc2c(=O)cc(N3CCOCC3)oc2c1)c1ccccc1 [Compound 423, 7-Benzoyloxy-2-(morpholin-4-yl)-chromen-4-one] | >33 |
